Key:
[1] = system: 18-month-old mice; experiment: iPTH in aged mice: in vivo micro-MRI of lumbar IVDs; design: species or system mouse; settings: iPTH injection
Method: In vivo Spinal IVD imaging was conducted with a horizontal 30-cm-bore 9.4T Bruker Biospec preclinical scanner equipped with custom-built, single-turn volume coil positioned orthogonal to the BO magnetic field. Anesthetization of mice was initiated with 4% isoflurane and maintained with a 2% isoflurane and oxygen mixture. Mice were placed supine on a tray and taped to minimize the motion artifacts. We acquired T2-weighted images using a relaxation enhancement (RARE) sequence with the following parameter: an echo time/repetition time (TE/TR) of 15.17 ms/3,000 ms, 35 slices at thickness of 0.35 mm, field of view (FOV) of 1.75 cm×1.75 cm and matrix size of 256×128. All T2-weighted images were processed to a final matrix size of 256×256 with an isotropic resolution of 0.068 mm pixel-1. For quantification of signal intensity as an indicator of disc tissue hydration, the region of interest at L3-L4 level in each group was selected and measured using Image-Pro Plus Software version 6.

[2] = system: NP tissues; experiment: Western blot of pSmad2 in NP tissue of aged mice; format: in vivo, mouse; settings: NP tissues of 18-month-old mice
Method: Western blot analyses were conducted on the protein lysates from in vitro cultured NP cells or NP tissues from mice at specific time points after PTH (1-34) treatment and human at different ages with lumbar disc degeneration. The protein extract was centrifuged, the concentration of supernatant evaluated by DC protein assay (Bio-Rad Laboratories), and then separated by SDS-PAGE and blotted on a polyvinylidene fluoride membrane (Bio-Rad Laboratories). Following incubation in specific antibodies, we detected proteins using an enhanced chemiluminescence kit (Amersham Biosciences). We used specific antibodies recognizing rabbit CTGF (CCN2) (Abcam, 1:1000), Aggrecan (ACAN) (Abcan, 1:1000), p-Smad2 (Cell Signaling Technology Inc., 1:1000), Smad2 (Cell Signaling Technology Inc., 1:1000), GAPDH (Cell Signaling Technology Inc., 1:1000), CREB (Abcam, 1:2500), pCREB (Abcam, 1:2500), PTH1R PRB-635P (Covance, 1:100), PTH1R PRB-640P (Covance, 1:500) and goat integrin β6 (Santa Cruz, 1:500) to examine the protein concentrations in the lysates. Co-immunoprecipitation analyses were conducted on the nuclear and cytoplasmic protein extraction using NE-PER Nuclear and Cytoplasmic Extraction Kit (Pierce Thermo Scientific, 78833) from in vitro cultured NP cells treated with PTH (1-34) or vehicle.

[3] = system: β6 integrin; experiment: qRT-PCR of integrin mRNA in NP tissue of aged mice; format: in vivo, mouse; settings: NP cells of the aged mice
Method: After protein extraction, specimen from the same group of mice were prepared for RNA extraction using TRIzol reagent (Invitogen) according to the manufacturer's instruction. The purity of RNA was tested by measuring the absorbance at 260 and 280 nm. For qRT-PCR, two micrograms of RNA was reverse transcribed into cDNA using the SuperScript firststrand synthesis system (Invitrogen) and analyzed with SYBR Green-Master Mix (Qiagen) in the thermal cycler with two sets of primers specific for each target gene. Relative expression was calculated for each gene by the 2^−ΔΔCT method, with GAPDH for normalization.

[4] = system: β6 integrin promoter; experiment: Chromatin immunoprecipitation of pCREB on β6 integrin promoter in NP cells; format: cell-based, mouse; settings: ChIP, most distal CREB site (Primer 1)
Method: The ChIP assays were carried out using the Thermo Fisher ChIP Kit (catalog number: 26156). The crude homogenate from the NP cells was crosslinked with 1% formaldehyde at room temperature for 10 min. The reaction was stopped by adding glycine (0.25 M). After centrifugation, the pellet was collected and lysed in SDS lysis buffer containing protease inhibitor cocktail. The lysis was sonicated until the DNA was broken into fragments with a mean length of 200-1,000 bp. The samples were first pre-cleaned with protein G agarose and then subjected to immunoprecipitation overnight with […] of rabbit antibodies against pCREB (CST, 1:50) With […] of normal rabbit serum overnight at 4° C. The 10-20% of the sample for immunoprecipitation was used as an input (a positive control).

CC[C@H](C)[C@H](NC(=O)[C@H](CCC(=O)O)NC(=O)[C@H](CO)NC(=O)[C@@H](NC(=O)[C@@H](N)CO)C(C)C)C(=O)N[C@@H](CCC(N)=O)C(=O)N[C@@H](CC(C)C)C(=O)N[C@@H](CCSC)C(=O)N[C@@H](Cc1cnc[nH]1)C(=O)N[C@@H](CC(N)=O)C(=O)N[C@@H](CC(C)C)C(=O)NCC(=O)N[C@@H](CCCCN)C(=O)N[C@@H](Cc1cnc[nH]1)C(=O)N[C@@H](CC(C)C)C(=O)N[C@@H](CC(N)=O)C(=O)N[C@@H](CO)C(=O)N[C@@H](CCSC)C(=O)N[C@@H](CCC(=O)O)C(=O)N[C@@H](CCCN=C(N)N)C(=O)N[C@H](C(=O)N[C@@H](CCC(=O)O)C(=O)N[C@@H](Cc1c[nH]c2ccccc12)C(=O)N[C@@H](CC(C)C)C(=O)N[C@@H](CCCN=C(N)N)C(=O)N[C@@H](CCCCN)C(=O)N[C@@H](CCCCN)C(=O)N[C@@H](CC(C)C)C(=O)N[C@@H](CCC(N)=O)C(=O)N[C@@H](CC(=O)O)C(=O)N[C@H](C(=O)N[C@@H](Cc1cnc[nH]1)C(=O)N[C@@H](CC(N)=O)C(=O)N[C@@H](Cc1ccccc1)C(=O)O)C(C)C)C(C)C [PTH (1-34), teriparatide]
MRI signal intensity of lumbar IVDs [1]: significantly increased | pSmad2 (Western blot) [2]: increased | mRNA expression of β6 integrin [3]: specifically induced | binding of pCREB to the β6 integrin promoter [4]: inducing direct binding of pCREB

Source: patent publication US20210205638A1, “PARATHYROID HORMONE AND REGENERATION OF DEGENERATIVE DISCS DISEASE” (THE JOHNS HOPKINS UNIVERSITY, priority 2017, published 2021)
